Results: patent US12404268B2, “2-heteroaryl aminoquinazolinone derivative” (Sumitomo Pharma Co., Ltd., priority 2020, dated 2025)
Blank lines part the entries; values can stand above or below the molecule they belong to.

Legend:
[1] = test system: male Slc:ddY mice (pentetrazol-induced clonic seizure); assay: Model subcutaneously injected with pentetrazol (minimum seizure model, scPTZ); assay type: in vivo, mouse; details: 85 mg/kg pentetrazol s.c. 1 hour after oral dosing, observed 30 minutes
Method: Evaluation of Model Subcutaneously Injected with Pentetrazol (Minimum Seizure Model, scPTZ)
This test evaluates the antiseizure effect of a medicament. The animal model used in this test is a phenotype of generalized absence seizure or myoclonic seizure. The test compound was orally administered to male Slc:ddY mice (group of five, body weight: 20 to 30 g), and 85 mg of pentetrazol/kg was subcutaneously administered 1 hour later. The presence/absence of expression of clonic seizure during 30 minutes was then observed. The dose at which […] (ED50) was calculated. 0.5% methylcellulose solution was administered for the control.

[2] = test system: neurons induced to differentiate from SCN1A gene deficient human iPS cells; assay: Test for measuring hyperexcitation suppression activity (spontaneous calcium oscillation frequency); assay type: cell-based; details: Neuron; for inhibition at 1 µM / inhibition at 0.1 µM / inhibition at 10 µM / inhibition at 100 µM: Homo sapiens, read-out: inhibition rate; for IC50: SCN1A gene deficient human iPS cell-derived neurons, FLIPR Calcium 6, FDSS7000EX, read-out: IC50 (50% inhibitory concentration, frequency of spontaneous calcium oscillation)
Outline: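 SCN1A-deficient iPS-derived neurons used from day 60 of differentiation, loaded 30 min with Calcium 6 probe. Compounds at final 0.1–100 μM; spontaneous calcium oscillation frequency recorded on FDSS7000EX, with the last 2 of 8 min post-addition expressed relative to the 2 min baseline.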

[3] = test system: SCN1A loss-of-function genetic mutation mice (epileptic spike); assay: Evaluation of epileptic spike using SCN1A-mutated animal; assay type: in vivo, mouse; details: F1 SCN1A-mutated mice; spike frequency over 3 hours before and after administration
Method: Evaluation of Epileptic Spike Using SCN1A-Mutated Animal
This test evaluates the inhibitory effect of a medicament on epileptic spike expressed with an SCN1A loss-of-function genetic mutation.
Febrile seizure was induced in the SCN1A-mutated mice (6 to 10 week old) described above from increasing the body temperature by placing and continuously incubating the mice in a plastic chamber whose internal temperature was increased by incubation using a warm bath of about 43° C. After two weeks from inducing febrile seizure, a head mount (cat #8201-SS, Pinnacle Technology) was mounted on the head of the mice. Two weeks after mounting the head mount, the F1 SCN1A loss-of-function genetic mutation mice (25 to 32 g) were connected to a seizure EEG recording system (Pinnacle Technology), and the test compound was administered. The epileptic spike frequency over 3 hours before and after administration of the compound was measured, and the dose at which epileptic spike frequency is suppressed to 50% after the administration (ED50) was calculated.

[4] = test system: male Slc:ddy mice; assay: Rotarod evaluation (motor coordination); assay type: in vivo, mouse; details: rotarod 15 rpm, 50 minutes after oral dosing, 180 seconds
Method: The test evaluates the effect of suppressing the ability of motor coordination of a medicament. Male Slc:ddy mice (body weight: 20 to 30 g) were trained to walk for 5 minutes with a rotarod apparatus (apparatus for rotating a cylindrical bar with a 4 cm diameter, 12 rpm) on the day of the test. A test compound was orally administered to a group of 5 mice. […] Animals that fell off within 180 seconds due to incoordination were counted. […] 0.5% methylcellulose solution was administered for the control.

[5] = test system: male Slc:ddY mice (electroshock-induced tonic extensor seizure); assay: Maximal electroshock seizure (MES) model; assay type: in vivo, mouse; details: corneal stimulation 60 Hz, 50 mA, 0.2 seconds 1 hour after oral dosing
Method: Evaluation of Maximal Electroshock Seizure (MES) Model
This test evaluates the antiseizure effect of a medicament in the same manner as Test Example 3. The animal model used in this test is a phenotype of generalized tonic-clonic seizure and secondary generalized partial seizure. The test compound was orally administered to male Slc:ddY mice (group of five, body weight: 20 to 30 g), and electrical stimulation (60 Hz, 50 mA, 0.2 seconds) was applied through the cornea 1 hour later. Suppression of induced expression of tonic extensor seizure of the rear limb was observed. The dose at which […] (ED50) was calculated. 0.5% methylcellulose solution was administered for the control.

SMILES: N#Cc1ccc2nc(Nc3cccnc3)n(-c3ccccc3)c(=O)c2c1 [Example 3, 4-oxo-3-phenyl-2-(pyridin-3-ylamino)-3,4-dihydroquinazoline-6-carbonitrile]
ED50 (clonic seizure) [1]: 0.74 mg/kg, p.o. | inhibition at 1 µM [2]: 97% | ED50 (dose at which epileptic spike frequency is suppressed to 50%) [3]: 0.66 mg/kg, p.o. | TD50 (dosage at which 50% of animals fall off) [4]: 2.0 mg/kg, p.o.

SMILES: Cc1ccccc1-n1c(Nc2cncc(F)c2)nc2ccc(C#N)cc2c1=O [Example 114, 2-((5-fluoropyridin-3-yl)amino)-4-oxo-3-(o-tolyl)-3,4-dihydroquinazoline-6-carbonitrile]
ED50 (clonic seizure) [1]: 0.065 mg/kg, p.o. | inhibition at 0.1 µM [2]: 55% | ED50 (dose at which epileptic spike frequency is suppressed to 50%) [3]: 0.044 mg/kg, p.o. | TD50 (dosage at which 50% of animals fall off) [4]: 0.2 mg/kg, p.o.

SMILES: O=c1c2ccccc2nc(Nc2cccnc2)n1-c1ccccc1 [Example 14, 3-phenyl-2-(pyridin-3-ylamino)quinazolin-4(3H)-one]
ED50 (clonic seizure) [1]: 4.17 mg/kg, p.o. | IC50 [2]: 1.8 µM | ED50 (dose at which epileptic spike frequency is suppressed to 50%) [3]: 5.83 mg/kg, p.o. | TD50 (dosage at which 50% of animals fall off) [4]: 7.38 mg/kg, p.o.

SMILES: O=c1c2cc(F)ccc2nc(Nc2cncc(F)c2)n1-c1ccccc1 [Example 40, 6-fluoro-2-((5-fluoropyridin-3-yl)amino)-3-phenylquinazolin-4(3H)-one]
ED50 (clonic seizure) [1]: 0.27 mg/kg, p.o. | inhibition at 1 µM [2]: 100% | ED50 (tonic extensor seizure) [5]: 0.56 mg/kg, p.o. | ED50 (dose at which epileptic spike frequency is suppressed to 50%) [3]: 0.12 mg/kg, p.o. | TD50 (dosage at which 50% of animals fall off) [4]: 1.8 mg/kg, p.o.

SMILES: O=c1c2cc(F)ccc2nc(Nc2cccnc2)n1-c1ccccc1 [Example 12, 6-fluoro-3-phenyl-2-(pyridin-3-ylamino)quinazolin-4(3H)-one]
ED50 (clonic seizure) [1]: 0.25 mg/kg, p.o. | IC50 [2]: 0.2 µM | ED50 (tonic extensor seizure) [5]: 0.56 mg/kg, p.o. | ED50 (dose at which epileptic spike frequency is suppressed to 50%) [3]: 0.18 mg/kg, p.o. | TD50 (dosage at which 50% of animals fall off) [4]: 1.8 mg/kg, p.o.

SMILES: O=c1c2cc(F)cc(F)c2nc(Nc2cccnc2)n1-c1ccccc1 [Example 32, 6,8-difluoro-3-phenyl-2-(pyridin-3-ylamino)quinazolin-4(3H)-one]
ED50 (clonic seizure) [1]: 4.17 mg/kg, p.o. | inhibition at 1 µM [2]: 80% | ED50 (dose at which epileptic spike frequency is suppressed to 50%) [3]: 1.48 mg/kg, p.o. | TD50 (dosage at which 50% of animals fall off) [4]: 8.83 mg/kg, p.o.

IC50 [2]: > 100 µM
SMILES: CN(C)C(=O)c1ccc2nc(Nc3cccnc3)n(-c3ccccc3)c(=O)c2c1 [Example 213]

SMILES: CN1CCC(Cn2c(Nc3cccnc3)nc3ccc(F)cc3c2=O)CC1 [Example 156]
inhibition at 10 µM [2]: 95%

SMILES: COc1ccc2nc(Nc3cccnc3)n(-c3ccccc3)c(=O)c2c1 [Example 13]
inhibition at 100 µM [2]: 20%

SMILES: Cc1ccc(Nc2nc3ccc(F)cc3c(=O)n2-c2ccccc2)cn1 [Example 30]
inhibition at 1 µM [2]: 67%

SMILES: CN1CCC[C@@H](n2c(Nc3cccnc3)nc3ccccc3c2=O)C1 [Example 75]
inhibition at 10 µM [2]: 100%

IC50 [2]: > 10 µM
SMILES: O=c1c2cc(Cl)ccc2nc(Nc2nnco2)n1-c1ccccc1 [Example 228]

SMILES: Cc1ncccc1Nc1nc2ccc(F)cc2c(=O)n1-c1ccccc1 [Example 29]
inhibition at 10 µM [2]: 82%

SMILES: COc1ccncc1Nc1nc2ccc(Cl)cc2c(=O)n1-c1ccccc1 [Example 23]
inhibition at 1 µM [2]: 61%

IC50 [2]: > 10 µM
SMILES: O=c1c2cc(F)ccc2nc(Nc2cccnc2)n1[C@H]1CCOC1 [Example 199]

SMILES: O=c1c2cc(F)ccc2nc(Nc2cnsc2)n1-c1ccccc1 [Example 178]
inhibition at 10 µM [2]: 76%

SMILES: CN1[C@@H]2CC[C@H]1C[C@@H](n1c(Nc3cccnc3)nc3ccc(F)cc3c1=O)C2 [Example 80]
inhibition at 10 µM [2]: 49%

SMILES: Cc1ccccc1-n1c(Nc2cccnc2)nc2cc(F)ccc2c1=O [Example 121]
inhibition at 1 µM [2]: 28%

SMILES: COc1ccc(-n2c(Nc3cccnc3)nc3ccc(C#N)cc3c2=O)c(C)c1 [Example 102, 3-(4-methoxy-2-methylphenyl)-4-oxo-2-(pyridin-3-ylamino)-3,4-dihydroquinazoline-6-carbonitrile]
inhibition at 10 µM [2]: 92%

SMILES: COc1cc(F)cc2c(=O)n(-c3ccccc3)c(Nc3cccnc3)nc12 [Example 17]
inhibition at 100 µM [2]: 17%

SMILES: O=c1c2cc(F)ccc2nc(Nc2cccnc2)n1C1(c2ccccc2)CNC1 [Example 175]
inhibition at 10 µM [2]: 25%

SMILES: CN1CC[C@@H](n2c(Nc3cccnc3)nc3ccc(F)cc3c2=O)C1 [Example 97]
inhibition at 100 µM [2]: 100%

SMILES: O=c1c2cc(Cl)ccc2nc(Nc2nncs2)n1-c1ccccc1 [Example 229]
inhibition at 10 µM [2]: 5%

SMILES: Cc1cccc(-n2c(Nc3cccnc3)nc3ccc(F)cc3c2=O)c1 [Example 106]
inhibition at 0.1 µM [2]: 17%

IC50 [2]: > 10 µM
SMILES: O=c1c2ncccc2nc(Nc2cccnc2)n1-c1ccccc1 [Example 191]

SMILES: Cc1ccncc1Nc1nc2ccc(F)cc2c(=O)n1-c1ccccc1 [Example 47]
inhibition at 10 µM [2]: 89%

SMILES: O=c1c2cc(F)ccc2nc(Nc2ccncc2F)n1-c1ccccc1 [Example 140]
inhibition at 1 µM [2]: 46%

SMILES: N#Cc1ccc2nc(Nc3ccccn3)n(-c3ccccc3)c(=O)c2c1 [Example 88]
inhibition at 10 µM [2]: 95%

SMILES: C[C@]1(N)CC[C@H](n2c(Nc3cccnc3)nc3ccc(F)cc3c2=O)CC1 [Example 84]
inhibition at 10 µM [2]: 96%

SMILES: O=c1c2cc(F)ccc2nc(Nc2cccnc2)n1CCC(F)(F)F [Example 171]
inhibition at 100 µM [2]: 100%

SMILES: O=c1c2cc(Cl)ccc2nc(Nc2cccnc2)n1-c1ccccc1Cl [Example 15, 6-chloro-3-(2-chlorophenyl)-2-(pyridin-3-ylamino)quinazolin-4(3H)-one]
inhibition at 1 µM [2]: 99%

SMILES: Cc1ccccc1-n1c(Nc2cccnc2)nc2ccc(C#N)cc2c1=O [Example 109, 4-oxo-2-(pyridin-3-ylamino)-3-(o-tolyl)-3,4-dihydroquinazoline-6-carbonitrile]
ED50 (clonic seizure) [1]: 0.25 mg/kg, p.o. | inhibition at 0.1 µM [2]: 59% | ED50 (dose at which epileptic spike frequency is suppressed to 50%) [3]: 0.19 mg/kg, p.o. | TD50 (dosage at which 50% of animals fall off) [4]: 2.0 mg/kg, p.o.

SMILES: CN1CC[C@@H](n2c(Nc3cccnc3)nc3ccccc3c2=O)C1 [Example 96]
inhibition at 100 µM [2]: 100%

IC50 [2]: > 10 µM
SMILES: CN(C)c1cncc(-n2c(Nc3cccnc3)nc3ccc(F)cc3c2=O)c1 [Example 215]

IC50 [2]: > 10 µM
SMILES: Cc1cc2c(=O)n(-c3ccccc3)c(Nc3cccnc3)nc2cn1 [Example 194]

IC50 [2]: 6.1 µM
SMILES: O=c1c2cc(Cl)ccc2nc(Nc2ccc3nccnc3c2)n1-c1ccccc1 [Example 5]

IC50 [2]: > 10 µM
SMILES: COc1ccnc(Nc2nc3ccc(F)cc3c(=O)n2-c2ccccc2)c1 [Example 187]

SMILES: Cc1ncccc1Nc1nc2ccc(Cl)cc2c(=O)n1-c1ccccc1 [Example 24]
inhibition at 10 µM [2]: 54%
